Assay results from a melting point compilation (Tetko et al.; mined from patent text by program, amines drawn as free bases though some values may be those of a salt).

Compared with `CC(=NOCCOc1ccc(C(=O)O)c(OC(=O)c2ccc(-c3ccccc3)cc2)c1)c1ccccc1`, `O=C(O)Cc1cc(C(=O)c2ccc(Cl)cc2)sc1-c1ccccc1` is lower in melting point: 158 to 159 °C for the first, 142 to 143 °C for the second.

Compared with `CC(c1cccc(C(=O)c2ccccc2)c1)C(O)CC#N` (stereo not drawn), `O=C(O)Cc1ccc2ccn(C(=O)c3ccccc3)c2c1` is lower in melting point: 130 °C for the first, 113 to 115 °C for the second.

First: CNc1cc(C(F)(F)F)no1
Second: Cc1nsc(OCC(F)(F)F)c1[N+](=O)[O-]
The melting point of the first is lower: 48.5 to 50 °C for the first, 63 to 64 °C for the second.

First: Nc1ccc(S(=O)(=O)c2cc(-c3ccc(F)cc3)nc(N3CCCC3)c2)cc1
Second: COc1ccc(S(=O)(=O)Nc2cccnc2Nc2ccc(C)cc2)cc1
The melting point of the first is higher: 245 to 246 °C for the first, 188 to 189 °C for the second.

Compared with `COC(=O)C[C@H](O)C[C@@H](O)C=Cc1c(-c2ccc(F)cc2)c(-c2ccc(F)cc2)c(C(=O)OCc2ccccc2)n1C(C)C`, `COC(=O)CC(=O)/C=C/c1c(-c2ccc(F)cc2)n(C(C)C)c(=O)c2ccccc12` is higher in melting point: 105 to 107 °C for the first, 123 to 125 °C for the second.

First: CCOC(=O)CC[C@H](NC(=O)c1ccc(C(COC2CCCCO2)CC2CNc3nc(NC(=O)C(C)(C)C)nc(O)c3C2)cc1)C(=O)OCC (stereo partly drawn)
Second: CNC(=O)C1CN(CCCC(c2ccc(F)cc2)c2ccc(F)cc2)CCN1CC(=O)Nc1c(C)cc(N)cc1C (stereo not drawn)
The melting point of the first is higher: 183 to 186 °C for the first, 112 °C for the second.

Compared with `C[C@H]([C@H](O)c1ccc(O)c(O)c1)N1CCC(O)(c2ccccc2)CC1` (relative stereo), `OCCCNC1=Nc2ccccc2C1(O)c1ccccc1` (stereo not drawn) is higher in melting point: 167 to 168 °C for the first, 215 to 217 °C for the second.

First: Cc1cncc(CNC(=O)c2sc(N3CCN(CCCC(F)(F)F)C3=O)nc2C)n1
Second: CCOC(=O)COc1ccc(SCc2ccc3sc(-c4ccc(C(F)(F)F)cc4)nc3c2)cc1C
The melting point of the first is lower: 123 °C for the first, 138 to 140 °C for the second.

Compared with `COc1ccc2c(c1)Cc1cc(=O)[nH]nc1-2`, `COc1ccc2c(c1)nnc1nnc(C)n12` is lower in melting point: 280 to 284 °C for the first, 259 to 261 °C for the second.

First: Cc1nc(C=Cc2nc3ccccc3c(=O)n2-c2ccccc2Cl)cs1
Second: CC(Nc1nnc(-c2ccsc2)c2ccccc12)c1ccccc1 (stereo not drawn)
The melting point of the first is higher: 219 to 221 °C for the first, 144 to 146 °C for the second.

Compared with `O=[N+]([O-])c1cccc2c3c(cc([N+](=O)[O-])c12)NCC3CCl` (stereo not drawn), `Cc1ccc2c(OCCCl)c3ccccc3c(OCCCl)c2c1` is lower in melting point: 206 to 207 °C for the first, 82 to 85 °C for the second.

Compared with `COc1cc(-c2ccccc2Cl)c(Cl)cc1C(=O)N1Cc2ccc(C(=O)N(C)Cc3cccnc3)n2Cc2ccccc21`, `CC(=O)OC(C)c1ccc2cc(OCc3ccccc3)ccc2c1` (stereo not drawn) is lower in melting point: 196 to 198 °C for the first, 97 to 98 °C for the second.

First: COc1cc(COc2nn(-c3ccccc3)cc2C=C(C#N)C#N)ccc1OCc1nc(-c2ccco2)oc1C
Second: CCCOCc1cc2c(-c3ccc(OCc4ccccc4)cc3)c(CC)c3cccc1n32
The melting point of the first is higher: 190 to 191 °C for the first, 78 to 80 °C for the second.

Compared with `CCN(CC)c1ccc2nc3c4ccccc4c(=Nc4nc5ccc(OC)cc5s4)cc-3oc2c1`, `CCNc1nc2ccc(CCc3ccccn3)cc2o1` is lower in melting point: 197 to 198 °C for the first, 57 to 59 °C for the second.

First: CCOc1cc(-c2nnc3c4ccccc4c(OCc4cn(C)cn4)nn23)no1
Second: Cc1oc(-c2ccccc2)nc1CCC(N)=O
The melting point of the first is higher: 189 to 190 °C for the first, 149 to 150 °C for the second.

First: CNS(=O)(=O)c1ccc(C)cc1C(=O)O
Second: CCOC(=O)c1cnc2ccc(Cl)cc2c1O
The melting point of the first is lower: 140 to 141 °C for the first, > 260 °C for the second.

First: CNc1cn(-c2cncc(F)c2)nc1C1CC1
Second: COc1cc2c(cc1Nc1ncc(Cl)c(N[C@@H]3CCCC[C@H]3NS(C)(=O)=O)n1)CCN(CCS(C)(=O)=O)CC2
The melting point of the first is lower: 118 to 120 °C for the first, 216 to 235 °C for the second.

First: CC(=O)Oc1cc(C(C)C)c(OC(C)=O)c(C(C)C)c1
Second: CCCCOCCOc1ccc(-c2ccc(N(C)CCOC)c(C=CC(=O)O)c2)cc1
The melting point of the first is lower: 73.5 to 75 °C for the first, 86.4 to 87.4 °C for the second.

First: CC1(C)CS(=O)(=O)CC(C)(C)N1CC#N
Second: CC1(C)OC(=S)Nc2ccc(-c3cccc(C#N)c3)cc21
The melting point of the first is lower: 188 °C for the first, 236 to 237 °C for the second.

First: CCCCCCC1C(=O)CCC1C(=O)O (stereo not drawn)
Second: N[C@@]1(C(=O)O)C[C@H](NC(=O)Nc2c(Cl)cccc2Cl)[C@H]2[C@H](C(=O)O)[C@H]21 (relative stereo)
The melting point of the first is lower: 73 to 74 °C for the first, > 250 °C for the second.

First: O=c1[nH]c2ccccc2c2c(CCN3CCN(Cc4ccccc4)CC3)n(-c3ccccc3)nc12
Second: COc1ccccc1OCC(O)CCN1CCN(c2ccccc2)CC1 (stereo not drawn)
The melting point of the first is higher: 211 to 212 °C for the first, 101 to 102 °C for the second.

First: N#Cc1cccc(CN2C(=O)C3(COc4cc5c(cc43)CCO5)c3ccccc32)c1 (stereo not drawn)
Second: Clc1cc(OCCOc2ccc3ccccc3c2)cc(Cl)c1Br
The melting point of the first is higher: 187 to 193 °C for the first, 140 to 142 °C for the second.

First: ON=Cc1ccc(Sc2ccccc2)cc1
Second: N#CC(=Cc1ccc(O)c(O)c1)C(=O)Nc1ccc(Cl)cc1
The melting point of the first is lower: 74 to 76 °C for the first, 290 °C for the second.

First: CCCCN(CCCC)CCCNS(=O)(=O)c1ccc2c(c1)C(=O)c1cc(S(=O)(=O)NCCCN(CCCC)CCCC)ccc1C2=O
Second: Oc1ccc(CC2CO2)cc1 (racemic)
The melting point of the first is higher: 93 to 95 °C for the first, 54 to 57 °C for the second.
